28 molecules from ChEMBL document CHEMBL4257530, “Synthesis and evaluation of 6-heteroarylamino-2,4,5-trimethylpyridin-3-ols as inhibitors of TNF-α-induced cell adhesion and inflammatory bowel disease” (Medchemcomm, 2018) can be followed below.

Activity calls are given as the source filed them. The rule behind the calls is not given here. Some results are limits rather than exact numbers.

For test [1], the system named is HT-29. Kind of test: Inhibition of TNFalpha-mediated adhesion of BCECF fluorescence-labeled human U937 cells to human HT-29 cells at 20 mM pretreated for 1 hr followed by BCECF fluorescence-labeled human U937 cell/TNFalpha addition and measured after 3 hrs by fluorescence assay relative to control. The test is classed as functional.
Test [2] relates to HT-29. Put plainly: Inhibition of TNFalpha-mediated adhesion of BCECF fluorescence-labeled human U937 cells to human HT-29 cells at 1 uM pretreated for 1 hr followed by BCECF fluorescence-labeled human U937 cell/TNFalpha addition and measured after 3 hrs by fluorescence assay relative to control. Type of test: functional.
In test [3] the test system is HT-29. Put plainly: Potency index, ratio of compound effect to 5-ASA effect for inhibition of TNFalpha-mediated adhesion of BCECF fluorescence-labeled human U937 cells to human HT-29 cells at 1 uM. The test is classed as functional.
The subject of test [4] is Rattus norvegicus. Put plainly: Antiinflammatory activity in TNBS-induced Sprague-Dawley rat colitis model assessed as decrease in TNFalpha expression at 1 mg/kg, po administered once daily via gavage for 5 days starting 1 day post TNBS induction measured on day 7 by Western blot analysis. Type of test: functional, organism-based. (In general: In western blotting, separated proteins are transferred to a membrane and probed.)

Test [5] has as its system Rattus norvegicus. Put plainly: Antiinflammatory activity in TNBS-induced Sprague-Dawley rat colitis model assessed as reduction in body weight loss at 1 mg/kg, po administered once daily via gavage for 5 days starting 1 day post TNBS induction measured on day 7. Type of test: functional, organism-based.
Test [6] relates to Rattus norvegicus. Kind of test: Antiinflammatory activity in TNBS-induced Sprague-Dawley rat colitis model assessed as myeloperoxidase level at 1 mg/kg, po administered once daily via gavage for 5 days starting 1 day post TNBS induction measured on day 7 by ELISA (reference value: 456.67 +/- 41.78 ng/ml). The test is classed as functional.
Test [7] has as its system Rattus norvegicus. Kind of test: Antiinflammatory activity in TNBS-induced Sprague-Dawley rat colitis model assessed as decrease in ICAM1 expression at 1 mg/kg, po administered once daily via gavage for 5 days starting 1 day post TNBS induction measured on day 7 by Western blot analysis. The test is classed as functional, organism-based.
Test [8] concerns HT-29. Put plainly: Potency index, ratio of 5-ASA IC50 to test compound IC50 for TNFalpha-mediated adhesion of BCECF fluorescence-labeled human U937 cells to human HT-29 cells. The test is classed as functional.
Test [9] relates to Rattus norvegicus. Kind of test: Antiinflammatory activity in TNBS-induced Sprague-Dawley rat colitis model assessed as increase in IL-10 expression at 1 mg/kg, po administered once daily via gavage for 5 days starting 1 day post TNBS induction measured on day 7 by Western blot analysis. Type of test: functional, organism-based.
The subject of test [10] is Rattus norvegicus. Kind of test: Antiinflammatory activity in TNBS-induced Sprague-Dawley rat colitis model assessed as decrease in IL1beta expression at 1 mg/kg, po administered once daily via gavage for 5 days starting 1 day post TNBS induction measured on day 7 by Western blot analysis. The test is classed as functional, organism-based.
The subject of test [11] is Rattus norvegicus. Kind of test: Antiinflammatory activity in TNBS-induced Sprague-Dawley rat colitis model assessed as recovery in colon weight at 1 mg/kg, po administered once daily via gavage for 5 days starting 1 day post TNBS induction measured on day 7 relative to control. The test is classed as functional.
For test [12], the system named is Rattus norvegicus. Kind of test: Antiinflammatory activity in TNBS-induced Sprague-Dawley rat colitis model assessed as decrease in IL-6 expression at 1 mg/kg, po administered once daily via gavage for 5 days starting 1 day post TNBS induction measured on day 7 by Western blot analysis. Type of test: functional, organism-based.
In test [13] the test system is Rattus norvegicus. Put plainly: Antiinflammatory activity in TNBS-induced Sprague-Dawley rat colitis model assessed as decrease in MCP1 expression at 1 mg/kg, po administered once daily via gavage for 5 days starting 1 day post TNBS induction measured on day 7 by ELISA. Type of test: functional, organism-based. In general terms: An ELISA detects its analyte on a solid surface through an enzyme-linked reagent.

For test [14], the system named is Rattus norvegicus. Kind of test: Antiinflammatory activity in TNBS-induced Sprague-Dawley rat colitis model assessed as recovery in colon weight at 300 mg/kg, po administered once daily via gavage for 5 days starting 1 day post TNBS induction measured on day 7. The test is classed as functional, organism-based.
Test [15] deals with Rattus norvegicus. Kind of test: Antiinflammatory activity in TNBS-induced Sprague-Dawley rat colitis model assessed as decrease in IL-6 expression at 300 mg/kg, po administered once daily via gavage for 5 days starting 1 day post TNBS induction measured on day 7 by Western blot analysis. The test is classed as functional, organism-based.
The subject of test [16] is Rattus norvegicus. Kind of test: Antiinflammatory activity in TNBS-induced Sprague-Dawley rat colitis model assessed as decrease in IL1beta expression at 300 mg/kg, po administered once daily via gavage for 5 days starting 1 day post TNBS induction measured on day 7 by Western blot analysis. Type of test: functional, organism-based.
In test [17] the test system is Rattus norvegicus. Kind of test: Antiinflammatory activity in TNBS-induced Sprague-Dawley rat colitis model assessed as decrease in MCP1 expression at 300 mg/kg, po administered once daily via gavage for 5 days starting 1 day post TNBS induction measured on day 7 by ELISA. The test is classed as functional, organism-based.
Test [18] relates to Rattus norvegicus. Put plainly: Antiinflammatory activity in TNBS-induced Sprague-Dawley rat colitis model assessed as increase in IL-10 expression at 300 mg/kg, po administered once daily via gavage for 5 days starting 1 day post TNBS induction measured on day 7 by Western blot analysis. Type of test: functional, organism-based.
Test [19] has as its system Rattus norvegicus. Kind of test: Antiinflammatory activity in TNBS-induced Sprague-Dawley rat colitis model assessed as decrease in ICAM1 expression at 300 mg/kg, po administered once daily via gavage for 5 days starting 1 day post TNBS induction measured on day 7 by Western blot analysis. The test is classed as functional, organism-based.
Test [20] deals with Rattus norvegicus. Kind of test: Antiinflammatory activity in TNBS-induced Sprague-Dawley rat colitis model assessed as decrease in TNFalpha expression at 300 mg/kg, po administered once daily via gavage for 5 days starting 1 day post TNBS induction measured on day 7 by Western blot analysis. Type of test: functional, organism-based.
Test [21] deals with Rattus norvegicus. Put plainly: Antiinflammatory activity in TNBS-induced Sprague-Dawley rat colitis model assessed as myeloperoxidase level at 300 mg/kg, po administered once daily via gavage for 5 days starting 1 day post TNBS induction measured on day 7 by ELISA (reference value: 456.67 +/- 41.78 ng/ml). The test is classed as functional.

`Nc1ccc(O)c(C(=O)O)c1` [MESALAMINE]: the inhibition at 20000 µM with HT-29 [1] amounted to 50.5%. The inhibition at 1 µM in the test on HT-29 [2] turned out to be 3.5%.

For the molecule `Cc1nc(Nc2nnc(-c3ccc(C(F)(F)F)cc3)s2)c(C)c(C)c1O`, in the test on HT-29 [3], the Ratio is 3 - 5. In the test on HT-29 [2], the inhibition at 1 µM turned out to be 52.3%.

For the molecule `Cc1nc(Nc2ccc(C(F)(F)F)cn2)c(C)c(C)c1O`, in the test with HT-29 [3], the Ratio is recorded as 3 - 5. Besides, the inhibition at 1 µM with HT-29 [2] was found to be 34.8%.

As for `Cc1nc(Nc2ccccn2)c(C)c(C)c1O`, in the test on HT-29 [3], the Ratio was 3 - 5. Moreover, in the test with HT-29 [2], the inhibition at 1 µM is 8.5%.

With `Cc1nc(Nc2ccc(Cl)cn2)c(C)c(C)c1O`, the Ratio with HT-29 [3] is listed as 3 - 5. The inhibition at 1 µM in the test with HT-29 [2] turned out to be 59%.

As to `Cc1nc(Nc2ccc(Cl)nc2)c(C)c(C)c1O`, the outcome in the test on Rattus norvegicus [4], with Rattus norvegicus [5], with Rattus norvegicus [7], in the test on Rattus norvegicus [9], with Rattus norvegicus [10] and in the test on Rattus norvegicus [12] was Active. Also, the result in the test on Rattus norvegicus [13] was Active. The Activity in the test on Rattus norvegicus [6] came out at 127.02 ng/mL; in the test on Rattus norvegicus [11], 72%. For the same molecule, the “Ratio IC50” value in the test with HT-29 [8] is “<=7 ×10⁴ No_unit”. For the same molecule, in the test with HT-29 [3], the Ratio is 3 - 5. Further, the inhibition at 1 µM with HT-29 [2] worked out at 75.4%.

For `Cc1nc(Nc2cccc3cccnc23)c(C)c(C)c1O`, in the test on HT-29 [3], the Ratio is given as 3 - 5. In the test on HT-29 [2], the inhibition at 1 µM amounted to 10.4%.

For the molecule `Cc1nc(Nc2cnc3ccccc3c2)c(C)c(C)c1O`, in the test on HT-29 [8], the “Ratio IC50” value is “<=7 ×10⁴ No_unit”. Further, the Ratio in the test on HT-29 [3] is 3 - 5. Further, the inhibition at 1 µM in the test with HT-29 [2] was found to be 63.4%.

With `Cc1nc(Nc2nc3ccccc3[nH]2)c(C)c(C)c1O`, the Ratio with HT-29 [3] is on record as 3 - 5. In addition, the inhibition at 1 µM in the test with HT-29 [2] turned out to be 59.9%.

In the case of `Cc1nc(Nc2ccc3ncccc3c2)c(C)c(C)c1O`, in the test on HT-29 [3], the Ratio was 3 - 5. For the same molecule, the inhibition at 1 µM with HT-29 [2] was 56.6%.

As for `Cc1nc(Nc2ccc(C(F)(F)F)nc2)c(C)c(C)c1O`, the Ratio with HT-29 [3] was 3 - 5. For the same molecule, the inhibition at 1 µM in the test with HT-29 [2] was 50.6%.

`Cc1nc(Nc2cncc3ccccc23)c(C)c(C)c1O`: the Ratio with HT-29 [3] was 3 - 5. Also, the inhibition at 1 µM in the test on HT-29 [2] was 55.4%.

On to `COC(=O)c1sccc1Nc1nc(C)c(O)c(C)c1C`, for which the Ratio in the test on HT-29 [3] is listed as 3 - 5. Also, in the test with HT-29 [2], the inhibition at 1 µM was determined as 23.7%.

Consider `Cc1ccc(-c2nnc(Nc3nc(C)c(O)c(C)c3C)s2)cc1`, for which, in the test with HT-29 [3], the Ratio is 3 - 5. Further, the inhibition at 1 µM with HT-29 [2] was determined as 16.6%.

For `Cc1nnc(Nc2nc(C)c(O)c(C)c2C)o1`, the Ratio in the test on HT-29 [3] is recorded as 3 - 5. Also, the inhibition at 1 µM in the test on HT-29 [2] came out at 26.2%.

Consider `COc1ccc(-c2nnc(Nc3nc(C)c(O)c(C)c3C)s2)cc1`, for which the Ratio with HT-29 [3] is 3 - 5. For the same molecule, the inhibition at 1 µM in the test with HT-29 [2] was found to be 13.2%.

For `CCOC(=O)c1coc(Nc2nc(C)c(O)c(C)c2C)n1`, the Ratio in the test on HT-29 [3] is 3 - 5. For the same molecule, in the test on HT-29 [2], the inhibition at 1 µM was 38.5%.

`Cc1nc(Nc2cccc3[nH]ccc23)c(C)c(C)c1O`: in the test with HT-29 [3], the Ratio is 3 - 5. Moreover, the inhibition at 1 µM with HT-29 [2] is 31.9%.

Consider `Cc1nc(Nc2nccs2)c(C)c(C)c1O`, for which the Ratio with HT-29 [3] is on record as 3 - 5. The inhibition at 1 µM in the test with HT-29 [2] stood at 23.7%.

`Cc1nc(Nc2nnc(-c3ccc(Br)cc3)s2)c(C)c(C)c1O`: the Ratio in the test on HT-29 [3] is 3 - 5. The inhibition at 1 µM in the test with HT-29 [2] amounted to 13.7%.

As for `Cc1nc(Nc2ccnc3ccccc23)c(C)c(C)c1O`, in the test with HT-29 [3], the Ratio is listed as 3 - 5. Further, the inhibition at 1 µM in the test with HT-29 [2] turned out to be 60.2%.

For the molecule `Cc1nc(Nc2cccc3cnccc23)c(C)c(C)c1O`, the Ratio in the test on HT-29 [3] is on record as 3 - 5. Moreover, the inhibition at 1 µM in the test on HT-29 [2] turned out to be 52.8%.

Take `Cc1nc(Nc2nnc(-c3ccccc3)o2)c(C)c(C)c1O`: the inhibition at 1 µM with HT-29 [2] was 1.4%.

With `Cc1nc(Nc2cc(C(F)(F)F)ccn2)c(C)c(C)c1O`, the Ratio in the test on HT-29 [3] is listed as 3 - 5. Besides, the inhibition at 1 µM in the test with HT-29 [2] came out at 22.8%.

In the case of `Cc1nc(Nc2nnc(-c3ccc(C(F)(F)F)cc3)o2)c(C)c(C)c1O`, in the test with HT-29 [3], the Ratio is on record as 3 - 5. Also, the inhibition at 1 µM with HT-29 [2] was found to be 55.7%.

For the molecule `O=C(O)c1cc(/N=N/c2ccc(S(=O)(=O)Nc3ccccn3)cc2)ccc1O` [SULFASALAZINE], the result in the test with Rattus norvegicus [14], in the test with Rattus norvegicus [15], in the test with Rattus norvegicus [16], in the test with Rattus norvegicus [17], in the test with Rattus norvegicus [18] and in the test with Rattus norvegicus [19] was Active. Further, in the test on Rattus norvegicus [20], the outcome was Active. In addition, the Activity in the test with Rattus norvegicus [21] stood at 209.65 ng/mL.

Take `Cc1nc(Nc2nnc(C(F)(F)F)o2)c(C)c(C)c1O`: in the test on HT-29 [3], the Ratio is on record as 3 - 5. Also, the inhibition at 1 µM in the test on HT-29 [2] worked out at 35.8%.

On to `Cc1nc(Nc2nnc(-c3ccccc3)s2)c(C)c(C)c1O`, for which the outcome with Rattus norvegicus [4], in the test with Rattus norvegicus [5], in the test on Rattus norvegicus [7], in the test on Rattus norvegicus [9], in the test with Rattus norvegicus [10] and in the test on Rattus norvegicus [12] was Active. Moreover, the outcome in the test on Rattus norvegicus [13] was Active. For the same molecule, the Activity came out at 107.37 ng/mL in the test on Rattus norvegicus [6] and 79% with Rattus norvegicus [11]. Further, the Ratio in the test with HT-29 [3] is reported as 3 - 5. Moreover, the inhibition at 1 µM in the test with HT-29 [2] stood at 78.7%.

One may read the inhibition as the percentage by which the read-out fell short of the control.
